According to US20220162163A1, “ALANINE-BASED MODULATORS OF PROTEOLYSIS AND ASSOCIATED METHODS OF USE” (Arvinas Operations, Inc., priority 2015, published 2022):

The compounds below were run against T1, Androgen receptor (AR) (Homo sapiens, UniProt P10275) (assay: Cellular assay of androgen receptor (AR) degradation (VCaP cells, ELISA)). Conditions: 4 h; androgen receptor, VCaP cells, PROTAC concentration 1 μM, relative to DMSO control; read-out: Target protein degradation range.
T1 construct: endogenous in cells; host or cells: VCaP
T1 sequence (P10275 1-920): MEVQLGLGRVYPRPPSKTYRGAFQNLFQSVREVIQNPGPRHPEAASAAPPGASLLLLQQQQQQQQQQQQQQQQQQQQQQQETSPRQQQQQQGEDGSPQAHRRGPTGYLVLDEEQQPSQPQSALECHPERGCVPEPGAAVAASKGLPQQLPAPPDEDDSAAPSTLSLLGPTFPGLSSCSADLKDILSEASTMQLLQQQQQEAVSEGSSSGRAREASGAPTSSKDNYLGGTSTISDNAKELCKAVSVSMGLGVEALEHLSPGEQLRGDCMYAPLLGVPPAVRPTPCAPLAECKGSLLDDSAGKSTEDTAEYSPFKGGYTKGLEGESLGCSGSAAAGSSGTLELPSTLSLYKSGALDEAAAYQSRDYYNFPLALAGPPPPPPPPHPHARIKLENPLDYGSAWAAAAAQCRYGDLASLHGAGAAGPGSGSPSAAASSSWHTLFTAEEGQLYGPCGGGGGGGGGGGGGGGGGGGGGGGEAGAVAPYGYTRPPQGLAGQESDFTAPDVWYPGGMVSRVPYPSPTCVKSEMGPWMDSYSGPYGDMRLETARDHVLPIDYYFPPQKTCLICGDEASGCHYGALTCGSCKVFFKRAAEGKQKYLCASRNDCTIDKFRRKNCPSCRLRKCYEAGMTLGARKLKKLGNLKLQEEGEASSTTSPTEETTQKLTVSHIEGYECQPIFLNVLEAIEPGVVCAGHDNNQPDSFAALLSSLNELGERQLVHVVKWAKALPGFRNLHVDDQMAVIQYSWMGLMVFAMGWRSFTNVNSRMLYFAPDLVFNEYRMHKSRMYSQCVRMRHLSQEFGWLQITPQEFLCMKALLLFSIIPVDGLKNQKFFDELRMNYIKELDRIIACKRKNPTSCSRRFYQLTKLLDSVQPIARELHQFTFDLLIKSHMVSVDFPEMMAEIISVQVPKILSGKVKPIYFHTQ
Assay type: cell-based
Protocol: Protocol of the Cellular Assay of Androgen Receptor (AR) Degradation (VCaP Cells, ELISA).
For detection Cell Signaling PathScan Sandwich Elisa Catalog #12850 Lot 11 was used. VCaP cells were cultured in ATCC DMEM+ATCC FBS and plated 40,000/well 100 μl/well in RPMI P/S with 5% CSS Omega (bovine) serum into a 96 well plate. The cells were grown for a minimum of 3 days, dosed with compounds in 0.1% DMSO (diluted with 5% CSS) and incubated with aspiration for 4 hours. 100 μl of 1× Cell Signaling lysis buffer #9803 (36 ml dH2O+4 ml Cell Signaling lysis buffer) was added. The incubation was placed on cold room shaker for 10 min at speed 8-9. 5 μl to 100 μl of Diluent was transferred to Elisa plate (0.15 ug/ml-0.075 ug/ml) and stored at 4 C overnight on cold room shaker speed 5 (gentle swirl) and then shaken next morning at 37° C. for 30 min. The preparation was washed 4×200 μl with Elisa wash buffer and aspirated with eight-channel aspirator. 100 μl/well of AR detection Ab was added after which the preparation was covered and shaken at 37° C. for 1 hr. 100 ul TMB was added, and the mixture was shaken for 5 min while under observation. When TMB turned light blue, 100 ul of Stop solution was added, and the mixture was shaken and read at 450 nm. Also read at 562 for background subtraction.
Work on `CN[C@@H](C)C(=O)N[C@H](C(=O)N1CC[C@@H]2CCN(CCc3ccc(OCCOCCOCCNc4ccc(C(=O)N[C@H]5C(C)(C)[C@H](Oc6ccc(C#N)c(Cl)c6)C5(C)C)cc4)cc3)C[C@@H]21)C1CCCCC1` (mixture of isomers) [Example 32, 4-[1-[4-(2-[1-[(2S)-2-cyclohexyl-2-[(2S)-2-(methylamino)propanamido]acetyl]-octahydro-1H-pyrrolo[2,3-c]pyridin-6-yl]ethyl)phenyl]-1,4,7-trioxa-10-azadecan-10-yl]-N-[(1r,3r)-3-(3-chloro-4-cyanophenoxy)-2,2,4,4-tetramethylcyclobutyl]benzamide] yielded a Dmax at 1 µM of 0 to 30%.
`CN[C@@H](C)C(=O)N[C@H](C(=O)N1CC[C@@H]2CCN(CCc3ccc(OCCOCCOCCOCCNc4ccc(C(=O)N[C@H]5C(C)(C)[C@H](Oc6ccc(C#N)c(Cl)c6)C5(C)C)cc4)cc3)C[C@@H]21)C1CCCCC1` (racemic) [Example 33, N-((1r,3r)-3-(3-chloro-4-cyanophenoxy)-2,2,4,4-tetramethylcyclobutyl)-4-(2-(2-(2-(2-(4-(2-(1-((S)-2-cyclohexyl-2-((S)-2-(methylamino)propanamido)acetyl)-octahydropyrrolo[2,3-c]pyridin-6-yl)ethyl)phenoxy)ethoxy)ethoxy)ethoxy)ethylamino)benzamide] showed a Dmax at 1 µM of 30 to 60%.
For `CN[C@@H](C)C(=O)N[C@H](C(=O)N1CCC[C@H]1C(=O)N[C@H]1c2ccccc2C[C@H]1OCCOCCOCCOCCOCCOc1ccc(C(=O)NC2C(C)(C)C(Oc3ccc(C#N)c(Cl)c3)C2(C)C)cc1)C(C)(C)C` (stereo partly drawn) [Example 1, 1-[3,3-dimethyl-(2S)-2-[(2S)-2-(methylamino)propanamido]butanoyl]-N-[(1S,2R)-2-[[1-(4-[[(1r,3r)-3-(3-chloro-4-cyanophenoxy)-2,2,4,4-tetramethylcyclobutyl]carbamoyl]phenyl)-1,4,7,10,13-pentaoxapentadecan-15-yl]oxy]-2,3-dihydro-1H-inden-1-yl]pyrrolidine-2-carboxamide], the Dmax at 1 µM was 30 to 60%.
`CN[C@@H](C)C(=O)N[C@H](C(=O)N1CCC[C@H]1c1nc(-c2ccc(OCCOCCNc3ccc(C(=O)NC4C(C)(C)C(Oc5ccc(C#N)c(Cl)c5)C4(C)C)cc3)c3ccccc23)cs1)C1CCCCC1` (stereo partly drawn) [Example 29, 4-[(2-[2-[(4-[2-[(2S)-1-[(2S)-2-cyclohexyl-2-[(2S)-2-(methylamino)propanamido]acetyl]pyrrolidin-2-yl]-1,3-thiazol-4-yl]naphthalen-1-yl)oxy]ethoxy]ethyl)amino]-N-[(1r,3r)-3-(3-chloro-4-cyanophenoxy)-2,2,4,4-tetramethylcyclobutyl]benzamide] was tested, and the Dmax at 1 µM was 0 to 30%.
`CN[C@@H](C)C(=O)N[C@H](C(=O)N1CCC[C@H]1c1nc(-c2ccc(OCCOCCOCCNc3ccc(C(=O)N[C@H]4C(C)(C)[C@H](Oc5ccc(C#N)c(Cl)c5)C4(C)C)cc3)c3ccccc23)cs1)C1CCCCC1` [Example 30, 4-[1-(4-[2-[(2S)-1-[(2S)-2-Cyclohexyl-2-[(2S)-2-(methylamino)propanamido]acetyl]pyrrolidin-2-yl]-1,3-thiazol-4-yl]naphthalen-1-yl)-1,4,7-trioxa-10-azadecan-10-yl]-N-[(1r,3r)-3-(3-chloro-4-cyanophenoxy)-2,2,4,4-tetramethylcyclobutyl]benzamide] showed a Dmax at 1 µM of 0 to 30%.
`CN[C@@H](C)C(=O)N[C@H](C(=O)N1CCC[C@H]1c1nc(-c2ccc(OCCOCCOCCOCCNc3ccc(C(=O)N[C@H]4C(C)(C)[C@H](Oc5ccc(C#N)c(Cl)c5)C4(C)C)cc3)c3ccccc23)cs1)C1CCCCC1` [Example 31, 4-[1-(4-[2-[(2S)-1-[(2S)-2-cyclohexyl-2-[(2S)-2-(methylamino)propanamido]acetyl]pyrrolidin-2-yl]-1,3-thiazol-4-yl]naphthalen-1-yl)-1,4,7,10-tetraoxa-13-azatridecan-13-yl]-N-[(1r,3r)-3-(3-chloro-4-cyanophenoxy)-2,2,4,4-tetramethylcyclobutyl]benzamide] gave a Dmax at 1 µM of 0 to 30%.
Work on `CN[C@@H](C)C(=O)N[C@H](C(=O)N1CCC[C@H]1C(=O)N[C@H]1c2ccccc2C[C@H]1OCCOCCOc1ccc(N2C(=S)N(c3ccc(C#N)c(C(F)(F)F)c3)C(=O)C2(C)C)cc1)C(C)(C)C` [Example 35, (S)—N-((1S,2R)-2-(2-(2-(4-(3-(4-cyano-3-(trifluoromethyl)-phenyl)-5,5-dimethyl-4-oxo-2-thioxoimidazolidin-1-yl)phenoxy)ethoxy)ethoxy)-2,3-dihydro-1H-inden-1-yl)-1-((S)-3,3-dimethyl-2-((S)-2-(methylamino)propanamido)-butanoyl)pyrrolidine-2-carboxamide] yielded a Dmax at 1 µM of 0 to 30%.

Same assay, conditions: @ 1 μM
For `CN[C@@H](C)C(=O)N[C@H](C(=O)N1CCC[C@H]1C(=O)N[C@H]1c2ccccc2C[C@H]1OCCOCCOCCOc1ccc(C(=O)N[C@H]2C(C)(C)[C@H](Oc3ccc(C#N)c(Cl)c3)C2(C)C)cc1)C(C)(C)C` [(2S)-1-[(2S)-3,3-dimethyl-2-[(2S)-2-(methylamino)propanamido]butanoyl]-N-[(1S,2R)-2-(2-{2-[2-(4-{[(1r,3r)-3-(3-chloro-4-cyanophenoxy)-2,2,4,4-tetramethylcyclobutyl]carbamoyl}phenoxy)ethoxy]ethoxy}ethoxy)-2,3-dihydro-1H-inden-1-yl]pyrrolidine-2-carboxamide], the “Androgen receptor (AR) degradation in VCaP cells” value (“Androgen receptor” for short) was 18%.
With `CN[C@@H](C)C(=O)N[C@H](C(=O)N1CCC[C@H]1C(=O)N[C@H]1c2ccccc2C[C@H]1OCCOCCOCCOCCOCCOc1ccc(C(=O)N[C@H]2C(C)(C)[C@H](Oc3ccc(C#N)c(Cl)c3)C2(C)C)cc1)C(C)(C)C` [(2S)-1-[(2S)-3,3-dimethyl-2-[(2S)-2-(methylamino)propanamido]butanoyl]-N-[(1S,2R)-2-{[1-(4-1{[(1r,3r)-3-(3-chloro-4-cyanophenoxy)-2,2,4,4-tetramethylcyclobutyl]carbamoyl}phenyl)-1,4,7,10,13-pentaoxapentadecan-15-yl]oxy}-2,3-dihydro-1H-inden-1-yl]pyrrolidine-2-carboxamide] the “Androgen receptor” value was 38%.
With `CN[C@@H](C)C(=O)N[C@H](C(=O)N1CCC[C@H]1C(=O)N[C@H]1c2ccccc2C[C@H]1OCCOCCOCCOCCOc1ccc(C(=O)N[C@H]2C(C)(C)[C@H](Oc3ccc(C#N)c(Cl)c3)C2(C)C)cc1)C(C)(C)C` [(2S)-1-[(2S)-3,3-dimethyl-2-[(2S)-2-(methylamino)propanamido]butanoyl]-N-[(1S,2R)-2-{[1-(4-1{[(1r,3r)-3-(3-chloro-4-cyanophenoxy)-2,2,4,4-tetramethylcyclobutyl]carbamoyl}phenyl)-1,4,7,10-tetraoxadodecan-12-yl]oxy}-2,3-dihydro-1H-inden-1-yl]pyrrolidine-2-carboxamide] the “Androgen receptor” value was 33%.

Same assay, conditions: androgen receptor, VCaP cells, PROTAC concentration 1 μM, relative to DMSO control
With “1-[(2S)-3,3-dimethyl-2-[(2S)-2-(methylamino)propanamido]butanoyl]-N-[(1S,2R)-2-[[1-(4-[[(1r,3r)-3-(3-chloro-4-cyanophenoxy)-2,2,4,4-tetramethylcyclobutyl]carbamoyl]phenyl)-1,4,7,10-tetraoxadodecan-12-yl]oxy]-2,3-dihydro-1H-inden-1-yl]pyrrolidine-2-carboxamide [Example 3]” the “Target protein degradation range” value was “B (degradation between 30% and 60%)”.
`CN[C@@H](C)C(=O)N[C@H](C(=O)N1CCCC1C(=O)N[C@H]1c2ccccc2C[C@H]1OCCOCCOCCOc1ccc(C(=O)NC2C(C)(C)C(Oc3ccc(C#N)c(Cl)c3)C2(C)C)cc1)C(C)(C)C` (stereo partly drawn) [Example 2, 1-[(2S)-3,3-dimethyl-2-[(2S)-2-(methylamino)propanamido]butanoyl]-N-[(1S,2R)-2-(2-[2-[2-(4-[[(1r,3r)-3-(3-chloro-4-cyanophenoxy)-2,2,4,4-tetramethylcyclobutyl]carbamoyl]phenoxy)ethoxy]ethoxy]ethoxy)-2,3-dihydro-1H-inden-1-yl]pyrrolidine-2-carboxamide] was tested, and the “Target protein degradation range” value was “C (degradation between 0% and 30%)”.
